The experiment addresses T1, Human BCL-XL protein (N-terminal HiBiT tagged BCL-XL expressed in HT1080 cells) (Homo sapiens, UniProt Q07817).
T1 construct: expressed in transfected cells; host or cells: HT-1080 (ATCC CCL-121), stably transduced with lentivirus pLV-UBC-N-HiBiT-BCL-XL-PGK-puro and selected with puromycin
Nature of the experiment: HiBiT Based Degradation Assay. Type of experiment: cell-based. Conditions: 24 hours incubation; for DC50: BCL-XL degradation, HT1080 cells expressing N-HiBiT-BCL-XL, normalized with DMSO control, geometric mean for multiple data points, read-out: EC50 (24 h); for Ymin (24 h): bottom of BCL-XL degradation curve (remaining HiBiT-BCL-XL signal vs DMSO control), HT1080 cells. A digest of the protocol: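 BCL-XL degradation was read as Nano-Glo HiBiT lytic luminescence relative to DMSO after a 24 h compound treatment of HT1080 cells carrying stably integrated N-HiBiT-BCL-XL. EC50 values come from four-parameter logistic curves, with the hook-curve minimum fixed as bottom, and are geometric means where tested repeatedly.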
A general note: HiBiT is a short tag that completes a luciferase, so light tracks the accessible tagged protein.

T1 sequence (Q07817 whole entry): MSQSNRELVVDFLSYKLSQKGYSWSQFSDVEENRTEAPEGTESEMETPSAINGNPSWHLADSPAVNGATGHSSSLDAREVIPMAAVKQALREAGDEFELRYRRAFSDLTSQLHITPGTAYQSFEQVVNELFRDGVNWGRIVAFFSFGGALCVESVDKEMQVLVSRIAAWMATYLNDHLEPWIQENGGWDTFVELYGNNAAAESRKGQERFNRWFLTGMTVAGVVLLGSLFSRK

`Cc1cc(OCCC[C@H]2CCN(CC(=O)Nc3ccc4c(C5CCC(=O)NC5=O)nn(C)c4c3)[C@@H](C)C2)ccc1-c1ccc(N2CCc3ccnc(C(=O)Nc4nc5ccccc5s4)c3C2)nc1C(=O)O` (stereo partly drawn) [Compound 219b, 6-(8-(benzo[d]thiazol-2-ylcarbamoyl)-3,4-dihydro-2,7-naphthyridin-2(1H)-yl)-3-(4-(3-((2S,4S)-1-(2-((3-(2,6-dioxopiperidin-3-yl)-1-methyl-1H-indazol-6-yl)amino)-2-oxoethyl)-2-methylpiperidin-4-yl)propoxy)-2-methylphenyl)picolinic acid]: the DC50 was less than 10 nM and the “Ymin (24 h)” value is reported as “A (Ymin < 30%)”.
For the molecule `Cc1cc(OCCC[C@@H]2CCN(CC(=O)Nc3ccc4c(C5CCC(=O)NC5=O)nn(C)c4c3)[C@H](C)C2)ccc1-c1ccc(N2CCc3ccnc(C(=O)Nc4nc5ccccc5s4)c3C2)nc1C(=O)O` (stereo partly shown) [Compound 219d], the DC50 was less than 10 nM and the “Ymin (24 h)” value is listed as “A (Ymin < 30%)”.
As to `Cn1nc(C2CCC(=O)NC2=O)c2ccc(NC(=O)CN3CCC4(CC3)CC(COc3cccc(-c5ccc(N6CCc7cccc(C(=O)Nc8nc9ccccc9s8)c7C6)nc5C(=O)O)c3C(F)(F)F)C4)c(F)c21` (stereo not shown) [Compound 185], the DC50 lay within 10 to 100 nM and the “Ymin (24 h)” value is “B (30% ≤ Ymin < 50%)”.
The like results for `Cc1cc(OCC2CC3(CCN(CC(=O)Nc4ccc5c(C6CCC(=O)NC6=O)nn(C)c5c4C(F)(F)F)CC3)C2)ccc1-c1ccc(N2CCc3cccc(C(=O)Nc4nc5ccccc5s4)c3C2)nc1C(=O)O` (stereo not shown) [Compound 136] were, in that order, 10 to 100 nM and “B (30% ≤ Ymin < 50%)”.
For `Cc1cc(OC2CC3(CCN(CC(=O)Nc4ccc5c(C6CCC(=O)NC6=O)nn(C)c5n4)CC3)C2)ccc1-c1ccc(N2CCc3ccnc(C(=O)Nc4nc5ccccc5s4)c3C2)nc1C(=O)O` (stereo not shown) [Compound 213] the same measures were less than 10 nM and “A (Ymin < 30%)”.
The like results for `Cc1c(OCC2CC3(CCN(CCCc4ccc5c(C6CCC(=O)NC6=O)nn(C)c5c4)CC3)C2)cccc1-c1ccc(N2CCc3cccc(C(=O)Nc4nc5ccccc5s4)c3C2)nc1C(=O)O` (stereo not shown) [Compound 149, 6-[8-(1,3-benzothiazol-2-ylcarbamoyl)-3,4-dihydro-1H-isoquinolin-2-yl]-3-[3-[[7-[3-[3-(2,6-dioxo-3-piperidyl)-1-methyl-indazol-6-yl]propyl]-7-azaspiro[3.5]nonan-2-yl]methoxy]-2-methyl-phenyl]pyridine-2-carboxylic acid] were, in that order, less than 10 nM and “A (Ymin < 30%)”.
As to `COc1c(NC(=O)CN2CCC3(CC2)CC(COc2cccc(-c4ccc(N5CCc6cccc(C(=O)Nc7nc8ccccc8s7)c6C5)nc4C(=O)O)c2C(F)(F)F)C3)ccc2c(C3CCC(=O)NC3=O)nn(C)c12` (stereo not shown) [Compound 143, 6-(8-(benzo[d]thiazol-2-ylcarbamoyl)-3,4-dihydroisoquinolin-2(1H)-yl)-3-(3-((7-(2-((3-(2,6-dioxopiperidin-3-yl)-7-methoxy-1-methyl-1H-indazol-6-yl)amino)-2-oxoethyl)-7-azaspiro[3.5]nonan-2-yl)methoxy)-2-(trifluoromethyl)phenyl)picolinic acid], the DC50 lay within 10 to 100 nM and the “Ymin (24 h)” value is “B (30% ≤ Ymin < 50%)”.
For `COc1c(NC(=O)CN2CC[C@H](CCCOc3cccc(-c4ccc(N5CCc6cccc(C(=O)Nc7nc8ccccc8s7)c6C5)nc4C(=O)O)c3C)C[C@H]2C)ccc2c(C3CCC(=O)NC3=O)nn(C)c12` (stereo partly shown) [Compound 208c] the same measures were 10 to 100 nM and “B (30% ≤ Ymin < 50%)”.
Consider `Cc1c(OC[C@@H]2C[C@H]2CC2CCN(CC(=O)Nc3ccc4c(C5CCC(=O)NC5=O)nn(C)c4c3)CC2)cccc1-c1ccc(N2CCc3cccc(C(=O)Nc4nc5ccccc5s4)c3C2)nc1C(=O)O` (single isomer, unassigned) [Compound 1004b], for which the DC50 lay within 10 to 100 nM and the “Ymin (24 h)” value is given as “B (30% ≤ Ymin < 50%)”.
Regarding `Cn1nc(C2CCC(=O)NC2=O)c2ccc(NC(=O)CN3CCC(CCCOc4ccc(-c5ccc(N6CCc7ccnc(C(=O)Nc8nc9ccccc9s8)c7C6)nc5C(=O)O)c(C(F)(F)F)c4)CC3)cc21` (stereo not shown) [Compound 157, 6-[8-(1,3-benzothiazol-2-ylcarbamoyl)-3,4-dihydro-1H-2,7-naphthyridin-2-yl]-3-[4-[3-[1-[2-[[3-(2,6-dioxo-3-piperidyl)-1-methyl-indazol-6-yl]amino]-2-oxo-ethyl]-4-piperidyl]propoxy]-2-(trifluoromethyl)phenyl]pyridine-2-carboxylic acid], the DC50 was in the range of 10 to 100 nM and the “Ymin (24 h)” value is listed as “A (Ymin < 30%)”.
Take `Cn1nc(C2CCC(=O)NC2=O)c2ccc(NC(=O)CN3CCC4(CC3)CC(Oc3ccc(-c5ccc(N6CCc7ccnc(C(=O)Nc8nc9ccccc9s8)c7C6)nc5C(=O)O)c(C(F)(F)F)c3)C4)cc21` (stereo not shown) [Compound 168, 6-[8-(1,3-benzothiazol-2-ylcarbamoyl)-3,4-dihydro-1H-2,7-naphthyridin-2-yl]-3-[4-[[7-[2-[[3-(2,6-dioxo-3-piperidyl)-1-methyl-indazol-6-yl]amino]-2-oxo-ethyl]-7-azaspiro[3.5]nonan-2-yl]oxy]-2-(trifluoromethyl)phenyl]pyridine-2-carboxylic acid]: the DC50 was less than 10 nM and the “Ymin (24 h)” value is given as “B (30% ≤ Ymin < 50%)”.
For `COc1c(NC(=O)CN2CCC3(CC2)CC(COc2cccc(-c4ccc(N5CCc6ccnc(C(=O)Nc7nc8ccccc8s7)c6C5)nc4C(=O)O)c2C(F)(F)F)C3)ccc2c(C3CCC(=O)NC3=O)nn(C)c12` (stereo not shown) [Compound 162, 6-[8-(1,3-benzothiazol-2-ylcarbamoyl)-3,4-dihydro-1H-2,7-naphthyridin-2-yl]-3-[3-[[7-[2-[[3-(2,6-dioxo-3-piperidyl)-7-methoxy-1-methyl-indazol-6-yl]amino]-2-oxo-ethyl]-7-azaspiro[3.5]nonan-2-yl]methoxy]-2-(trifluoromethyl)phenyl]pyridine-2-carboxylic acid] the same measures were 10 to 100 nM and “B (30% ≤ Ymin < 50%)”.
For `Cn1nc(C2CCC(=O)NC2=O)c2ccc(NC(=O)CN3CCC4(CC3)CC(Oc3ccc(-c5ccc(N6CCc7cccc(C(=O)Nc8nc9ccccc9s8)c7C6)nc5C(=O)O)c(C(F)(F)F)c3)C4)cc21` (stereo not shown) [Compound 155, 6-(8-(benzo[d]thiazol-2-ylcarbamoyl)-3,4-dihydroisoquinolin-2(1H)-yl)-3-(4-((7-(2-((3-(2,6-dioxopiperidin-3-yl)-1-methyl-1H-indazol-6-yl)amino)-2-oxoethyl)-7-azaspiro[3.5]nonan-2-yl)oxy)-2-(trifluoromethyl)phenyl)picolinic acid] the same measures were less than 10 nM and “A (Ymin < 30%)”.
The like results for `Cc1cc(OC2CC3(CCN(CC(=O)Nc4ccc5c(C6CCC(=O)NC6=O)nn(C)c5c4)CC3)C2)ccc1-c1ccc(N2CCc3ccnc(C(=O)Nc4nc5ccccc5s4)c3C2)nc1C(=O)O` (stereo not shown) [Compound 167, 6-[8-(1,3-benzothiazol-2-ylcarbamoyl)-3,4-dihydro-1H-2,7-naphthyridin-2-yl]-3-[4-[[7-[2-[[3-(2,6-dioxo-3-piperidyl)-1-methyl-indazol-6-yl]amino]-2-oxo-ethyl]-7-azaspiro[3.5]nonan-2-yl]oxy]-2-methyl-phenyl]pyridine-2-carboxylic acid] were, in that order, less than 10 nM and “A (Ymin < 30%)”.
In the case of `Cc1c(OCCCCC2CCN(Cc3nc4cc(C5CCC(=O)NC5=O)ccc4n3C)CC2)cccc1-c1ccc(N2CCc3cccc(C(=O)Nc4nc5ccccc5s4)c3C2)nc1C(=O)O` (stereo not shown) [Compound 2002], the DC50 fell in the range of 10 to 100 nM and the “Ymin (24 h)” value is “C (50% ≤ Ymin < 70%)”.
On to `Cc1c(OC[C@H]2C[C@@H]2C2CCN(CC(=O)Nc3ccc4c(C5CCC(=O)NC5=O)nn(C)c4c3)CC2)cccc1-c1ccc(N2CCc3cccc(C(=O)Nc4nc5ccccc5s4)c3C2)nc1C(=O)O` (single isomer, unassigned) [Compound 1001b], for which the DC50 was in the range of 10 to 100 nM and the “Ymin (24 h)” value was “B (30% ≤ Ymin < 50%)”.
The like results for `Cc1cc(OC2CC3(CCN(CC(=O)Nc4ccc5c(C6CCC(=O)NC6=O)nn(C)c5n4)CC3)C2)ccc1-c1ccc(N2CCc3cccc(C(=O)Nc4nc5ccccc5s4)c3C2)nc1C(=O)O` (stereo not shown) [Compound 195] were, in that order, less than 10 nM and “B (30% ≤ Ymin < 50%)”.
For `Cc1c(OCCC[C@H]2CCN(CC(=O)Nc3ccc4c(C5CCC(=O)NC5=O)nn(C)c4c3)[C@H](C)C2)cccc1-c1ccc(N2CCc3ccnc(C(=O)Nc4nc5ccccc5s4)c3C2)nc1C(=O)O` (stereo partly shown) [Compound 216c], the DC50 fell in the range of 10 to 100 nM and the “Ymin (24 h)” value is “B (30% ≤ Ymin < 50%)”.
The like results for `Cc1c(OCC[C@@H]2C[C@@H]3CN(CC(=O)Nc4ccc5c(C6CCC(=O)NC6=O)nn(C)c5c4)C[C@@H]3C2)cccc1-c1ccc(N2CCc3cccc(C(=O)Nc4nc5ccccc5s4)c3C2)nc1C(=O)O` (stereo partly shown) [Compound 173a] were, in that order, less than 10 nM and “B (30% ≤ Ymin < 50%)”.
On to `COc1cc2c(C3CCC(=O)NC3=O)nn(C)c2cc1NC(=O)CN1CCC2(CC1)CC(COc1cccc(-c3ccc(N4CCc5cccc(C(=O)Nc6nc7ccccc7s6)c5C4)nc3C(=O)O)c1C)C2` (stereo not shown) [Compound 126], for which the DC50 is 100 to 1000 nM and the “Ymin (24 h)” value is reported as “C (50% ≤ Ymin < 70%)”.
